Values quoted from earlier work in US20250213469A1, “DOSAGE FORMS OF ACTIVE […] AGAINST VIRAL DISEASES IN DRY POWDER INHALER DEVICE FOR SYMPTOMS CAUSED BY COVID-19 AND OTHER VIRAL LUNG DISEASES” ([…] EGITIM D[…].S., priority 2022, published 2025).

Settings: C3H/HeN mice, positron emission tomography; literature study of Bocan et al.

NC(=O)c1nc(F)c[nH]c1=O [[^18F] Favipiravir]
tissue retention (biodistribution) of the active substance: retained lowest in the lungs and the most in the kidney, liver and stomach
